According to patent US20070066561A1, “Drug delivery and targeting with vitamin B12 conjugates” (New York University, priority 2002, published 2007):
Converted amounts (≈) assume the structure as drawn.

Key:
K562 Erythroleukemia = experiment: Cytotoxicity against human cell lines grown in culture, MTT assay; type: cell-based; conditions: 72 hr continuous incubation, 5% human serum, relative cell growth by MTT, means of duplicate experiments
Text: (§1) The data below are means of duplicate experiments with similar results.

[1] = test system: HL60 Promyelocytic leukemia; experiment: as above; type: cell-based; conditions: 72 hr continuous incubation, 5% human serum, relative cell growth by MTT, means of duplicate experiments
Text: as §1

KARPAS-291 Lymphoma = experiment: as above; type: cell-based; conditions: 72 hr continuous incubation, 5% human serum, relative cell growth by MTT, means of duplicate experiments
Text: as §1

[2] = Bioactivity of cobalamin conjugates (test not described)
transcobalamin II (TCII) = target: T1, transcobalamin II (TCII) (Homo sapiens, UniProt P20062); experiment: Binding to transcobalamin II; conditions: compared with control vitamin B12; listed as p-iodohippuric acid TFP ester conjugated to the e-cyanocobalamin via the 4,7,10-
T1 sequence (P20062 19-427): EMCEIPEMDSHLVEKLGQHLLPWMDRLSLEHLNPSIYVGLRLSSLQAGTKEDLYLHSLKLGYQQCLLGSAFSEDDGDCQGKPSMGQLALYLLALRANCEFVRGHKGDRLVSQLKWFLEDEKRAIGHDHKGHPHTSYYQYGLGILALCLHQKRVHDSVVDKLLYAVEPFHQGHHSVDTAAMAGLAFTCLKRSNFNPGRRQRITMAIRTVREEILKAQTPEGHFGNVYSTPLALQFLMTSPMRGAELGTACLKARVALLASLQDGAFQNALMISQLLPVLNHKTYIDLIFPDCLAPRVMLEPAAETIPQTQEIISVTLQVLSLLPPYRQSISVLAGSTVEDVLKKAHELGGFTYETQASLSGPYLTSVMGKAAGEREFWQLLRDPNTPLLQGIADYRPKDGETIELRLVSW
Procedure: This conjugate may be used as a standard for future B12 derivatives because of its higher rate of binding to TCII, which is required for efficient delivery to the appropriate receptors.
The p-iodohippuric acid TFP ester conjugated to the e-cyanocobalamin via the 4,7,10-trioxa-1,13-tridecanediamine linker was assessed for binding to transcobalamin II (TCII).

[3] = between pH about 4 and 7; cited from earlier work
[4] = cited from earlier work

Compound: CC(=O)O[C@H]1C(=O)[C@@]2(C)[C@H]([C@H](OC(=O)c3ccccc3)[C@]3(O)C[C@H](OC(=O)[C@H](O)[C@@H](NC(=O)c4ccccc4)c4ccccc4)C(C)=C1C3(C)C)[C@]1(OC(C)=O)CO[C@@H]1C[C@@H]2O [Taxol, Paclitaxel]
- IC50 (K562 Erythroleukemia; K562): 4 ng/mL (≈ 4.68 nM)
- IC50 ([1]; HL-60): 0.15 ng/mL (≈ 0.176 nM)
- IC50 (KARPAS-291 Lymphoma): 2 ng/mL (≈ 2.34 nM)

Compound: B12-P-Hippuric acid-4,7,10-trioxa-1,13-tridecanediamine e-cyanocobalamin monocarboxylic acid conjugate [B12 P-Hippuric acid]
- Bioactivity [2]: bioactive
- Binding to TCII (transcobalamin II (TCII)): substantially as great as for control vitamin B12

Compound: cyanocobalamin [B12]
- Stability in aqueous solutions [3]: quite stable
- Cytotoxicity, K562 Erythroleukemia (K562 Erythroleukemia): 250 ng/mL
- Cytotoxicity, HL60 Promyelocytic leukemia [1]: 152 ng/mL
- Cytotoxicity, KARPAS-291 Lymphoma (KARPAS-291 Lymphoma): 294 ng/mL
- Solubility in acetone, ether, and chloroform [4]: insoluble
- Solubility in lower alcohols and phenol [4]: moderately soluble
- Solubility in water ([4]; room temperature): 12 mg/mL

Compound: p-iodohippuryl-1,12-diaminododecane conjugated to cyanocobalamin-e-carboxylate
- Bioactivity [2]: most bioactive conjugate studied
